# Measurements taken from patent US10750743B2, “Pyridazinone herbicides” (E.I. DU PONT DE NEMOURS AND COMPANY, priority 2015, dated 2020).
# Legend:
# Format in all cases: in vivo
# [1] = system: barnyardgrass (Echinochloa crus-galli); assay: Test A preemergence, directed soil spray, visual injury rating; settings: 0 is no effect, 100 is complete control
# Outline: (§1)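 Seeds sown in a loam soil–sand blend received a directed preemergence soil spray of test chemical in a non-phytotoxic solvent mixture with surfactant. Postemergence plants were sprayed at 2 to 10 cm, one- to two-leaf stage. After approximately 10 d in greenhouse, injury was visually rated 0 (no effect) to 100 (complete control) against untreated controls.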
# [2] = system: foxtail, giant (giant foxtail, Setaria faberii); assay: as above; settings: 0 is no effect, 100 is complete control
# Outline: as §1
# kochia (Kochia scoparia) [3] = assay: as above; settings: 0 is no effect, 100 is complete control
# Outline: as §1
# [4] = system: pigweed (Amaranthus retroflexus); assay: as above; settings: 0 is no effect, 100 is complete control
# Outline: as §1
# [5] = system: ragweed (common ragweed, Ambrosia elatior); assay: as above; settings: 0 is no effect, 100 is complete control
# Outline: as §1
# [6] = system: ryegrass, It. (Italian ryegrass, Lolium multiflorum); assay: as above; settings: 0 is no effect, 100 is complete control
# Outline: as §1
# [7] = system: barnyardgrass (Echinochloa crus-galli); assay: Test B flooded paddy test, visual rating; settings: Flood, 250 g ai/ha, applied to paddy water, rated after 13 to 15 d
# Outline: (§2)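 Plants at the 2-leaf stage were flooded to 3 cm above soil, and test compounds were applied directly into the paddy water, which was held at that depth throughout. After 13 to 15 d in a greenhouse, injury was rated visually against untreated controls on a 0–100 scale (0 no effect, 100 complete control).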
# [8] = system: ducksalad (Heteranthera limosa); assay: Test B flooded paddy test, visual rating; settings: Flood, 250 g ai/ha, applied to paddy water, rated after 13 to 15 d
# Outline: as §2
# rice (Oryza sativa) = assay: Test B flooded paddy test, visual rating; settings: Flood, 250 g ai/ha, applied to paddy water, rated after 13 to 15 d
# Outline: as §2
# [9] = system: sedge, umbrella (small-flower umbrella sedge, Cyperus difformis); assay: Test B flooded paddy test, visual rating; settings: Flood, 250 g ai/ha, applied to paddy water, rated after 13 to 15 d
# Outline: as §2
# [10] = system: barnyardgrass (Echinochloa crus-galli); assay: Test A postemergence application, visual injury rating; settings: 0 to 100 scale, 0 no effect, 100 complete control
# Outline: as §1
# [11] = system: blackgrass (Alopecurus myosuroides); assay: as above; settings: 0 to 100 scale, 0 no effect, 100 complete control
# Outline: as §1
# corn (Zea mays) = assay: as above; settings: for Corn plant response rating: 0 to 100 scale, 0 no effect, 100 complete control
# Outline: as §1
# [12] = system: foxtail, giant (giant foxtail, Setaria faberii); assay: as above; settings: for Foxtail, Giant plant response rating: 0 to 100 scale, 0 no effect, 100 complete control
# Outline: as §1
# [13] = system: galium (catchweed bedstraw, Galium aparine); assay: as above; settings: for Galium plant response rating: 0 to 100 scale, 0 no effect, 100 complete control
# Outline: as §1
# kochia (Kochia scoparia) [14] = assay: as above; settings: for Kochia plant response rating: 0 to 100 scale, 0 no effect, 100 complete control
# Outline: as §1
# [15] = system: pigweed (Amaranthus retroflexus); assay: as above; settings: for Pigweed plant response rating: 0 to 100 scale, 0 no effect, 100 complete control
# Outline: as §1
# [16] = system: ragweed (common ragweed, Ambrosia elatior); assay: as above; settings: for Ragweed plant response rating: 0 to 100 scale, 0 no effect, 100 complete control
# Outline: as §1
# [17] = system: ryegrass, It. (Italian ryegrass, Lolium multiflorum); assay: as above; settings: for Ryegrass, It. plant response rating: 0 to 100 scale, 0 no effect, 100 complete control
# Outline: as §1
# [18] = system: wheat (Triticum aestivum); assay: as above; settings: for Wheat plant response rating: 0 to 100 scale, 0 no effect, 100 complete control
# Outline: as §1
# [19] = 31 g ai/ha, 0 is no effect, 100 is complete control
Compound,"Plant response rating (0 to 100 scale), Barnyardgrass ([1]; 125 g ai/ha)","Plant response rating (0 to 100 scale), Foxtail, Giant ([2]; 125 g ai/ha)","Plant response rating (0 to 100 scale), Kochia (kochia (Kochia scoparia) [3]; 125 g ai/ha)","Plant response rating (0 to 100 scale), Pigweed ([4]; 125 g ai/ha)","Plant response rating (0 to 100 scale), Ragweed ([5]; 125 g ai/ha)","Plant response rating (0 to 100 scale), Ryegrass, It. ([6]; 125 g ai/ha)","Barnyardgrass plant response rating (0 to 100 scale, 0 is no effect, 100 is complete control) [7]","Ducksalad plant response rating (0 to 100 scale, 0 is no effect, 100 is complete control) [8]","Rice plant response rating (0 to 100 scale, 0 is no effect, 100 is complete control) (rice (Oryza sativa))","Sedge, Umbrella plant response rating (0 to 100 scale, 0 is no effect, 100 is complete control) [9]",Barnyardgrass plant response rating ([10]; 125 g ai/ha),Blackgrass plant response rating ([11]; 125 g ai/ha),Corn plant response rating (corn (Zea mays); 125 g ai/ha),"Foxtail, Giant plant response rating ([12]; 125 g ai/ha)",Galium plant response rating ([13]; 125 g ai/ha),Kochia plant response rating (kochia (Kochia scoparia) [14]; 125 g ai/ha),Pigweed plant response rating ([15]; 125 g ai/ha),Ragweed plant response rating ([16]; 125 g ai/ha),"Ryegrass, It. plant response rating ([17]; 125 g ai/ha)",Wheat plant response rating ([18]; 125 g ai/ha),further results
Cc1nn(C)c(=O)c(-c2ccc(Cl)c3sccc23)c1OC(=O)c1ccccc1 [Compound 57],0,0,0,0,0,10,0,0,0,0,0,0,0,0,0,0,0,0,0,0,"Plant response rating (0 to 100 scale), Barnyardgrass ([1]; 31 g ai/ha): 0; Plant response rating (0 to 100 scale), Foxtail, Giant ([2]; 31 g ai/ha): 0; Plant response rating (0 to 100 scale), Kochia (kochia (Kochia scoparia) [3]; 31 g ai/ha): 50; Plant response rating (0 to 100 scale), Pigweed ([4]; 31 g ai/ha): 0; Plant response rating (0 to 100 scale), Ragweed ([5]; 31 g ai/ha): 0; Plant response rating (0 to 100 scale), Ryegrass, It. ([6]; 31 g ai/ha): 0; Barnyardgrass plant response rating ([10]; 31 g ai/ha): 0; Blackgrass plant response rating ([11]; 31 g ai/ha): 0; Corn plant response rating (corn (Zea mays); 31 g ai/ha): 0; Foxtail, Giant plant response rating ([12]; 31 g ai/ha): 0; Galium plant response rating ([13]; 31 g ai/ha): 0; Kochia plant response rating (kochia (Kochia scoparia) [14]; 31 g ai/ha): 0; Pigweed plant response rating ([15]; 31 g ai/ha): 0; Ragweed plant response rating ([16]; 31 g ai/ha): 0; Ryegrass, It. plant response rating ([17]; 31 g ai/ha): 0; Wheat plant response rating ([18]; 31 g ai/ha): 0"
Cc1cc2c(-c3c(O)c(C)nn(C)c3=O)ccc(Cl)c2o1 [Compound 45],0,0,0,50,10,30,0,30,0,50,0,0,0,0,70,0,10,0,60,0,"Plant response rating (0 to 100 scale), Barnyardgrass ([1]; 31 g ai/ha): 0; Plant response rating (0 to 100 scale), Foxtail, Giant ([2]; 31 g ai/ha): 0; Plant response rating (0 to 100 scale), Kochia (kochia (Kochia scoparia) [3]; 31 g ai/ha): 0; Plant response rating (0 to 100 scale), Pigweed ([4]; 31 g ai/ha): 0; Plant response rating (0 to 100 scale), Ragweed ([5]; 31 g ai/ha): 0; Plant response rating (0 to 100 scale), Ryegrass, It. ([6]; 31 g ai/ha): 0; Barnyardgrass plant response rating ([10]; 31 g ai/ha): 0; Blackgrass plant response rating ([11]; 31 g ai/ha): 0; Corn plant response rating (corn (Zea mays); 31 g ai/ha): 0; Foxtail, Giant plant response rating ([12]; 31 g ai/ha): 0; Galium plant response rating ([13]; 31 g ai/ha): 20; Kochia plant response rating (kochia (Kochia scoparia) [14]; 31 g ai/ha): 0; Pigweed plant response rating ([15]; 31 g ai/ha): 0; Ragweed plant response rating ([16]; 31 g ai/ha): 0; Ryegrass, It. plant response rating ([17]; 31 g ai/ha): 20; Wheat plant response rating ([18]; 31 g ai/ha): 0"
Cc1nn(C)c(=O)c(-c2ccc(Cl)c3sccc23)c1O [Compound 63],0,0,20,0,0,20,0,0,0,0,0,0,0,0,90,60,50,0,10,0,"Plant response rating (0 to 100 scale), Barnyardgrass ([1]; 31 g ai/ha): 0; Plant response rating (0 to 100 scale), Foxtail, Giant ([2]; 31 g ai/ha): 0; Plant response rating (0 to 100 scale), Kochia (kochia (Kochia scoparia) [3]; 31 g ai/ha): 10; Plant response rating (0 to 100 scale), Pigweed ([4]; 31 g ai/ha): 0; Plant response rating (0 to 100 scale), Ragweed ([5]; 31 g ai/ha): 0; Plant response rating (0 to 100 scale), Ryegrass, It. ([6]; 31 g ai/ha): 0; Barnyardgrass plant response rating ([10]; 31 g ai/ha): 0; Blackgrass plant response rating ([11]; 31 g ai/ha): 0; Plant response rating (0 to 100 scale), Corn (corn (Zea mays); [19]): 0; Plant response rating (0 to 100 scale), Foxtail, Giant [12, 19]: 0; Plant response rating (0 to 100 scale), Galium [13, 19]: 30; Plant response rating (0 to 100 scale), Kochia (kochia (Kochia scoparia) [14]; [19]): 0; Plant response rating (0 to 100 scale), Pigweed [15, 19]: 0; Plant response rating (0 to 100 scale), Ragweed [16, 19]: 0; Plant response rating (0 to 100 scale), Ryegrass, It. [17, 19]: 0; Plant response rating (0 to 100 scale), Wheat [18, 19]: 0"
Cc1nn(C)c(=O)c(-c2cccc3sccc23)c1O [Compound 32],20,10,30,40,0,70,0,40,0,50,0,0,0,0,40,20,30,0,70,0,"Plant response rating (0 to 100 scale), Barnyardgrass ([1]; 500 g ai/ha): 40; Plant response rating (0 to 100 scale), Foxtail, Giant ([2]; 500 g ai/ha): 50; Plant response rating (0 to 100 scale), Kochia (kochia (Kochia scoparia) [3]; 500 g ai/ha): 40; Plant response rating (0 to 100 scale), Pigweed ([4]; 500 g ai/ha): 100; Plant response rating (0 to 100 scale), Ragweed ([5]; 500 g ai/ha): 80; Plant response rating (0 to 100 scale), Ryegrass, It. ([6]; 500 g ai/ha): 100; Barnyardgrass plant response rating ([10]; 500 g ai/ha): 50; Blackgrass plant response rating ([11]; 500 g ai/ha): 30; Corn plant response rating (corn (Zea mays); 500 g ai/ha): 0; Foxtail, Giant plant response rating ([12]; 500 g ai/ha): 40; Galium plant response rating ([13]; 500 g ai/ha): 80; Kochia plant response rating (kochia (Kochia scoparia) [14]; 500 g ai/ha): 70; Pigweed plant response rating ([15]; 500 g ai/ha): 30; Ragweed plant response rating ([16]; 500 g ai/ha): 40; Ryegrass, It. plant response rating ([17]; 500 g ai/ha): 90; Wheat plant response rating ([18]; 500 g ai/ha): 20"
CCOC(=O)Oc1c(C)nn(C)c(=O)c1-c1c(CC)sc2ncccc12 [Compound 19],0,0,0,0,0,0,0,0,0,0,0,0,0,0,0,0,10,0,0,0,"Plant response rating (0 to 100 scale), Barnyardgrass ([1]; 500 g ai/ha): 0; Plant response rating (0 to 100 scale), Foxtail, Giant ([2]; 500 g ai/ha): 0; Plant response rating (0 to 100 scale), Kochia (kochia (Kochia scoparia) [3]; 500 g ai/ha): 0; Plant response rating (0 to 100 scale), Pigweed ([4]; 500 g ai/ha): 20; Plant response rating (0 to 100 scale), Ragweed ([5]; 500 g ai/ha): 0; Plant response rating (0 to 100 scale), Ryegrass, It. ([6]; 500 g ai/ha): 0; Barnyardgrass plant response rating ([10]; 500 g ai/ha): 0; Blackgrass plant response rating ([11]; 500 g ai/ha): 0; Corn plant response rating (corn (Zea mays); 500 g ai/ha): 0; Foxtail, Giant plant response rating ([12]; 500 g ai/ha): 0; Galium plant response rating ([13]; 500 g ai/ha): 20; Kochia plant response rating (kochia (Kochia scoparia) [14]; 500 g ai/ha): 0; Pigweed plant response rating ([15]; 500 g ai/ha): 30; Ragweed plant response rating ([16]; 500 g ai/ha): 0; Ryegrass, It. plant response rating ([17]; 500 g ai/ha): 0; Wheat plant response rating ([18]; 500 g ai/ha): 0"
